In patent US20230310438A1 (priority 2019, published 2023):
Entries after “also recorded” stand apart in the source; their conditions may differ.

Tested on: whole blood of youth with OUD and healthy controls
Type: cell-based, human

Row | Molecule | Th-polarizing cytokine production | induction of cytokines and chemokines such as IL-12p40, IL-6, CXCL8, CXCL10, CCL2 and TNF
1 | CCOCc1nc2c(N)nc3ccccc3c2n1CC(C)(C)O [Formula R848, resiquimod] | robust and balanced | 
2 | monophosphoryl lipid A [MPLA] |  | reduced; also recorded: impaired
